Type in all cases: biochemical
The target of test [1] is JAK2 (Homo sapiens (Human), UniProt O60674). Briefly: Enzyme assay (Assay Example^a 1), JAK2. As to conditions: ATP 100 μM.
In test [2] the target is Tyk2 (Homo sapiens (Human), UniProt P29597). Kind of test: Enzyme assay (Assay Example^a 1), Tyk2. As to conditions: ATP 100 μM.
Test [3] deals with JAK1 (Homo sapiens (Human), UniProt P23458). Briefly: Enzyme assay (Assay Example^a 1), JAK1. The settings on record: ATP 100 μM.
Test [4] addresses JAK3 (Homo sapiens (Human), UniProt P52333). Kind of test: Enzyme assay (Assay Example^a 1), JAK3.

Read-outs that look alike come from different tables or passages of the source.

Chain of Tyk2 (P29597 whole entry): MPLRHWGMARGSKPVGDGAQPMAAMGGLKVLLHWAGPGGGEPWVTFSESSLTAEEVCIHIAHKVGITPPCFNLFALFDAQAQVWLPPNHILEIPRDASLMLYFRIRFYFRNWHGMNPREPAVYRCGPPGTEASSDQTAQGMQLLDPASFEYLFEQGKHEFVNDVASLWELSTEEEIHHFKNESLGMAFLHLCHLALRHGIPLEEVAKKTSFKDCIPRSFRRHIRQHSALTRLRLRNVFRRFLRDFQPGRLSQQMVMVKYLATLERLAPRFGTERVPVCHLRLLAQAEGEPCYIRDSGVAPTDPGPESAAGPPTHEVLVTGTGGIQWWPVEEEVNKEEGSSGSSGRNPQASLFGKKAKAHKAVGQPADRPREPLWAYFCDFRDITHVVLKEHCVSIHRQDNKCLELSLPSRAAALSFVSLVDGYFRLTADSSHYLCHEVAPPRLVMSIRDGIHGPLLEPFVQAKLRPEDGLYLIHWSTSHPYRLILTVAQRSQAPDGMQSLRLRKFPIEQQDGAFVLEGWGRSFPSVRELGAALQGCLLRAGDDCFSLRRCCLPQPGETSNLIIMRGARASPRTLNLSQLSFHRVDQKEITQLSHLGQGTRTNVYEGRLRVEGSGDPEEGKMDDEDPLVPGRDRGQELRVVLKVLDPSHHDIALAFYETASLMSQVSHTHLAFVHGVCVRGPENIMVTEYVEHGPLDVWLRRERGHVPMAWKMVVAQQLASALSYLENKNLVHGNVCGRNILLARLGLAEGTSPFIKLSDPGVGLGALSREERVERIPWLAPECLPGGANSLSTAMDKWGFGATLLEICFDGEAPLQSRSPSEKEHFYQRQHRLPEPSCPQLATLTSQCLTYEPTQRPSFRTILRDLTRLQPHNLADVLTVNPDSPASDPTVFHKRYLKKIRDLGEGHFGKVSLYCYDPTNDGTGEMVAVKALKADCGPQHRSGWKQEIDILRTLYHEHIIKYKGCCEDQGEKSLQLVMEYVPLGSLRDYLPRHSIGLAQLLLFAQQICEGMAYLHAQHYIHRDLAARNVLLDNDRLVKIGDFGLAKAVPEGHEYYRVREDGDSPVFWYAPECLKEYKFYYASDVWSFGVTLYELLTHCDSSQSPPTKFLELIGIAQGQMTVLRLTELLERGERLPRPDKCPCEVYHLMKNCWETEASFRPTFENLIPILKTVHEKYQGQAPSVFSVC
Chain of JAK3 (P52333 whole entry): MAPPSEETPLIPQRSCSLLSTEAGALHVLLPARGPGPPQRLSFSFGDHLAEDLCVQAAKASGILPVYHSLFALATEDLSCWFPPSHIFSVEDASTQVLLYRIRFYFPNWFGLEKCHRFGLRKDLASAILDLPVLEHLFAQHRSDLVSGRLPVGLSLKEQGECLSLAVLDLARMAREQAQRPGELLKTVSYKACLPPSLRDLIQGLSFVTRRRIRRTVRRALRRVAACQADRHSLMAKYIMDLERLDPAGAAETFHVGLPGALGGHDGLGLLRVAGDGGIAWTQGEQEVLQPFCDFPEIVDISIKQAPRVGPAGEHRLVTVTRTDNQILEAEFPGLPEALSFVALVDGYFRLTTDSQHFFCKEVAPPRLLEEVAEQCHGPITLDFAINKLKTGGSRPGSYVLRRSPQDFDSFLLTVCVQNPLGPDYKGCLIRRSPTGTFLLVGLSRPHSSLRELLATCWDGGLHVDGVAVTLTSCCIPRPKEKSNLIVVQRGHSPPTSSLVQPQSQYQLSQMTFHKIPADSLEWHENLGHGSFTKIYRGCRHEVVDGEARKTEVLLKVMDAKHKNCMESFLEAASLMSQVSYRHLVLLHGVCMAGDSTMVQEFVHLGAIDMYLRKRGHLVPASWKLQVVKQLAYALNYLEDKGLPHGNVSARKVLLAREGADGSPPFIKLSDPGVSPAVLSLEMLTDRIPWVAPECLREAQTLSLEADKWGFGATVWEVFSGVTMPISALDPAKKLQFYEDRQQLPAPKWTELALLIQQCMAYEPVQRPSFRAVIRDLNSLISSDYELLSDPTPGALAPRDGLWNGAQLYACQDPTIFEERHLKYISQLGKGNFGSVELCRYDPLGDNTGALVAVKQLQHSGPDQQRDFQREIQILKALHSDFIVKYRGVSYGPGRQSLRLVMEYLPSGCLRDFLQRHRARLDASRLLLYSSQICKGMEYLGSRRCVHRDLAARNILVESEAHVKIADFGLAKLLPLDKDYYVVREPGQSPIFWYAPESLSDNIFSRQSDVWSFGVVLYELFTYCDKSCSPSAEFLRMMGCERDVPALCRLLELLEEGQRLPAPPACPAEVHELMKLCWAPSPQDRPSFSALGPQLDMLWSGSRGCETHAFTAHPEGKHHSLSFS

As a reminder, the IC50 is the concentration at which inhibition is half-maximal. Read a high IC50 as weaker potency in that assay. Consider `O=C(O)C1CN(C[C@H]2CC[C@H](c3nnn4cnc5[nH]ccc5c34)CC2)C1` [compound 278, 1-{[trans-4-(7H-pyrrolo[3,2-e][1,2,3]triazolo[1,5-c]pyrimidin-1-yl)cyclohexyl]methyl}azetidine-3-carboxylic acid], for which the IC50 in test [1] was determined as 0.034 µM; in test [2], 0.4 µM; in test [3] it was 0.0043 µM; in test [4] (ATP 100 μM) it was 0.45 µM.

`N#Cc1ccc(CN2CCC(c3nnn4cnc5[nH]cc(Cl)c5c34)CC2)cc1` [compound 377, 4-{[4-(9-Chloro-7H-pyrrolo[3,2-e][1,2,3]triazolo[1,5-c]pyrimidin-1-yl)piperidin-1-yl]methyl}benzonitrile]: the IC50 in test [1] was 0.017 µM; in test [2], more than 1 µM; in test [3], 0.0045 µM; in test [4] (ATP 100 μM) it was 0.054 µM.

Take `CSc1ccc(C(O)(CN[C@H]2CC[C@H](c3nnn4cnc5[nH]ccc5c34)CC2)C(F)(F)F)cc1` (stereo partly drawn) [386b, 3-{[trans-4-(7H-pyrrolo[3,2-e][1,2,3]triazolo[1,5-c]pyrimidin-1-yl)cyclohexyl]amino}-1,1,1-trifluoro-2-[4-(methylthio)phenyl]propan-2-ol]: the IC50 in test [1] worked out at 0.027 µM; in test [2], 0.39 µM; in test [3] it was 0.0017 µM; in test [4] (ATP 100 μM) it was 0.28 µM.

In the case of `Cc1cc(NC(=O)N2CCCC(c3nnn4cnc5[nH]ccc5c34)C2)sn1` (racemic) [compound 21], the IC50 worked out at 0.11 µM in test [1] (Table^a 154); 0.71 µM in test [2] (Table^a 154); 0.015 µM in test [3] (Table^a 154); 0.9 µM in test [4] (ATP 100 μM, Table^a 154).

Turning to `C(=C\c1ccco1)/CN1CCC(c2nnn3cnc4[nH]ccc4c23)CC1` [compound 215, (E)-1-{1-[3-(furan-2-yl)allyl]piperidin-4-yl}-7H-pyrrolo[3,2-e][1,2,3]triazolo[1,5-c]pyrimidine], the half-maximal inhibitory concentration (IC50) in test [1] is 0.25 µM; in test [2], more than 1 µM; in test [3] it was 0.026 µM; in test [4] (ATP 100 μM) it was more than 1 µM.

Regarding `C#CCNC[C@H]1CC[C@H](c2nnn3cnc4[nH]ccc4c23)CC1` [compound 333, N-{[trans-4-(7H-pyrrolo[3,2-e][1,2,3]triazolo[1,5-c]pyrimidin-1-yl)cyclohexyl]methyl}prop-2-yn-1-amine], the IC50 is 0.044 µM in test [1], 0.27 µM in test [2], 0.0085 µM in test [3] and more than 1 µM in test [4] (ATP 100 μM).

`N#CC1CN(C[C@H]2CC[C@H](c3nnn4cnc5[nH]ccc5c34)CC2)C1` [compound 281, 1-{[trans-4-(7H-pyrrolo[3,2-e][1,2,3]triazolo[1,5-c]pyrimidin-1-yl)cyclohexyl]methyl}azetidine-3-carbonitrile]: the IC50 in test [1] amounted to 0.05 µM; in test [2], 0.48 µM; in test [3] it was 0.0077 µM; in test [4] (ATP 100 μM) it was 0.15 µM.

`c1cc(CN2CCC(c3nnn4cnc5[nH]ccc5c34)CC2)ccn1` [compound 239, 1-[1-(pyridin-4-ylmethyl)piperidin-4-yl]-7H-pyrrolo[3,2-e][1,2,3]triazolo[1,5-c]pyrimidine]: the IC50 came out at 0.035 µM in test [1], 0.65 µM in test [2], 0.0081 µM in test [3] and 0.61 µM in test [4] (ATP 100 μM).

With `N#CCCN(CCC#N)C1CCC(c2nnn3cnc4[nH]ccc4c23)CC1` (stereo not shown) [compound 380, 3,3′-{[4-(7H-pyrrolo[3,2-e][1,2,3]triazolo[1,5-c]pyrimidin-1-yl)cyclohexyl]azanediyl}dipropanenitrile], the IC50 in test [1] is 0.0025 µM; in test [2], 0.028 µM; in test [3] it was 0.002 µM; in test [4] (ATP 100 μM), 0.2 µM.

With `O/N=C/[C@H]1CC[C@H](c2nnn3cnc4[nH]ccc4c23)CC1` [compound 429, 4-(7H-Pyrrolo[3,2-e][1,2,3]triazolo[1,5-c]pyrimidin-1-yl)cyclohexanecarbaldehyde oxime], the IC50 was found to be 0.035 µM in test [1], 0.52 µM in test [2], 0.017 µM in test [3] and 0.79 µM in test [4] (ATP 100 μM).

Take `N#C/C(=C\N1CCC(c2nnn3cnc4[nH]ccc4c23)CC1)c1ccccc1` [compound 230, (Z)-3-[4-(7H-pyrrolo[3,2-e][1,2,3]triazolo[1,5-c]pyrimidin-1-yl)piperidin-1-yl]-2-phenylacrylonitrile]: the IC50 in test [1] was 0.13 µM; in test [2] it was more than 1 µM; in test [3], 0.035 µM; in test [4] (ATP 100 μM) it was more than 1 µM.

Turning to `N#C[C@@H]1CCN(C[C@H]2CC[C@H](c3nnn4cnc5[nH]ccc5c34)CC2)C1` [compound 301, (R)-1-{[trans-4-(7H-pyrrolo[3,2-e][1,2,3]triazolo[1,5-c]pyrimidin-1-yl)cyclohexyl]methyl}pyrrolidine-3-carbonitrile], the 50% inhibitory concentration (IC50) in test [1] is 0.072 µM; in test [2] it was more than 1 µM; in test [3], 0.024 µM; in test [4] (ATP 100 μM), 0.96 µM.

As to `N#Cc1ccc(CN2CCC(c3nnn4cnc5[nH]ccc5c34)CC2)cc1F` [compound 222, 4-{[4-(7H-pyrrolo[3,2-e][1,2,3]triazolo[1,5-c]pyrimidin-1-yl)piperidin-1-yl]methyl}-2-fluorobenzonitrile], the IC50 stood at 0.033 µM in test [1], 0.77 µM in test [2], 0.0035 µM in test [3] and 0.32 µM in test [4] (ATP 100 μM).

Take `N#CCCN(CCC#N)C[C@H]1CC[C@H](c2nnn3cnc4[nH]ccc4c23)CC1` [compound 180, 3,3′-({[trans-4-(7H-pyrrolo[3,2-e][1,2,3]triazolo[1,5-c]pyrimidin-1-yl)cyclohexyl]methyl}azanediyl)dipropanenitrile]: the half-maximal inhibitory concentration (IC50) in test [1] (Table^a 154) was determined as 0.0019 µM; in test [2] (Table^a 154), 0.022 µM; in test [3] (Table^a 154), 0.0013 µM; in test [4] (ATP 100 μM, Table^a 154), 0.03 µM.

With `NC(=O)[C@H]1CC[C@H](c2nnn3cnc4[nH]ccc4c23)CC1` [compound 348, trans-4-(7H-pyrrolo[3,2-e][1,2,3]triazolo[1,5-c]pyrimidin-1-yl)cyclohexanecarboxamide], the IC50 in test [1] was determined as 0.051 µM; in test [2] it was 0.29 µM; in test [3], 0.0099 µM; in test [4] (ATP 100 μM) it was 0.75 µM.

Take `FC(F)CNC[C@H]1CC[C@H](c2nnn3cnc4[nH]ccc4c23)CC1` [compound 255, N-{[trans-4-(7H-pyrrolo[3,2-e][1,2,3]triazolo[1,5-c]pyrimidin-1-yl)cyclohexyl]methyl}-2,2-difluoroethanamine]: the IC50 in test [1] was determined as 0.015 µM; in test [2], 0.14 µM; in test [3], 0.0025 µM; in test [4] (ATP 100 μM), 0.24 µM.

As to `c1ccc(CCCN[C@H]2CC[C@H](c3nnn4cnc5[nH]ccc5c34)CC2)cc1` [136b], the IC50 in test [1] (Table^a 154) was 0.29 µM; in test [2] (Table^a 154), 0.45 µM; in test [3] (Table^a 154), 0.016 µM; in test [4] (ATP 100 μM, Table^a 154) it was more than 1 µM.

Consider `O=S(=O)(C[C@H]1CC[C@H](c2nnn3cnc4[nH]ccc4c23)CC1)C(F)(F)F` [compound 368, 1-(trans-4-{[(Trifluoromethyl)sulfonyl]methyl}cyclohexyl)-7H-pyrrolo[3,2-e][1,2,3]triazolo[1,5-c]pyrimidine], for which the half-maximal inhibitory concentration (IC50) amounted to 0.0061 µM in test [1], 0.03 µM in test [2], 0.0013 µM in test [3] and 0.37 µM in test [4] (ATP 100 μM).

`CN(C)[C@H]1CCN(C[C@H]2CC[C@H](c3nnn4cnc5[nH]ccc5c34)CC2)C1` [compound 181, (S)-1-{[trans-4-(7H-pyrrolo[3,2-e][1,2,3]triazolo[1,5-c]pyrimidin-1-yl)cyclohexyl]methyl}-N,N-dimethylpyrrolidin-3-amine]: the IC50 in test [1] (Table^a 154) was 0.13 µM; in test [2] (Table^a 154), 0.49 µM; in test [3] (Table^a 154), 0.024 µM; in test [4] (ATP 100 μM, Table^a 154), more than 1 µM.

On to `FC(F)(Br)CNC[C@H]1CC[C@H](c2nnn3cnc4[nH]ccc4c23)CC1` [compound 269, N-{[trans-4-(7H-pyrrolo[3,2-e][1,2,3]triazolo[1,5-c]pyrimidin-1-yl)cyclohexyl]methyl}-2-bromo-2,2-difluoroethanamine], for which the IC50 came to 0.012 µM in test [1], 0.1 µM in test [2], 0.0013 µM in test [3] and 0.057 µM in test [4].

For `N#CCN(C[C@H]1CC[C@H](c2nnn3cnc4[nH]ccc4c23)CC1)C(=O)CC(F)(F)F` [compound 412, N-{[trans-4-(7H-Pyrrolo[3,2-e][1,2,3]triazolo[1,5-c]pyrimidin-1-yl)cyclohexyl]methyl}-N-(cyanomethyl)-3,3,3-trifluoropropanamide], the IC50 in test [1] turned out to be 0.0056 µM; in test [2], 0.32 µM; in test [3], 0.0026 µM; in test [4] (ATP 100 μM), 0.054 µM.

Take `Fc1ccc(CN[C@H]2CC[C@H](c3nnn4cnc5[nH]ccc5c34)CC2)cc1` [195b, trans-N-(4-fluorobenzyl)-4-(7H-pyrrolo[3,2-e][1,2,3]triazolo[1,5-c]pyrimidin-1-yl)cyclohexanamine]: the 50% inhibitory concentration (IC50) in test [1] (Table^a 154) was 0.042 µM; in test [2] (Table^a 154), 0.12 µM; in test [3] (Table^a 154) it was 0.007 µM; in test [4] (ATP 100 μM, Table^a 154), 0.56 µM.

Regarding `Fc1cc(CN2CCC(c3nnn4cnc5[nH]ccc5c34)CC2)ccc1Cl` [compound 159], the IC50 in test [1] (Table^a 154) was 0.011 µM; in test [2] (Table^a 154), 0.3 µM; in test [3] (Table^a 154), 0.0016 µM; in test [4] (ATP 100 μM, Table^a 154), 0.08 µM.

In the case of `FC(F)(F)c1nc2cc(NC[C@H]3CC[C@H](c4nnn5cnc6[nH]ccc6c45)CC3)ccc2[nH]1` [compound 175, N-{[trans-4-(7H-pyrrolo[3,2-e][1,2,3]triazolo[1,5-c]pyrimidin-1-yl)cyclohexyl]methyl}-2-(trifluoromethyl)-1H-benzo[d]imidazol-5-amine], the IC50 in test [1] (Table^a 154) came to 0.0074 µM; in test [2] (Table^a 154), 0.045 µM; in test [3] (Table^a 154), 0.0056 µM; in test [4] (ATP 100 μM, Table^a 154), 0.34 µM.

Consider `N#CC1CC12CCC(c1nnn3cnc4[nH]ccc4c13)CC2` (stereo not shown) [compound 444, 6-(7H-Pyrrolo[3,2-e][1,2,3]triazolo[1,5-c]pyrimidin-1-yl)spiro[2.5]octane-1-carbonitrile], for which the IC50 was found to be 0.009 µM in test [1], 0.045 µM in test [2], 0.0034 µM in test [3] and 0.25 µM in test [4] (ATP 100 μM).

(Values after patent US9216999B2, “Substituted pyrrolo[2,3-h][1,6]naphthyridines and compositions thereof as JAK inhibitors” (priority 2011, dated 2015).)
